Assay results from ChEMBL document CHEMBL1201862, “PubChem BioAssay data set” (2004).
Calls of active or inactive are those of the source.

How the values were obtained:
[1] = molecular target: T1, Apoptotic protease-activating factor 1 (Homo sapiens, UniProt O14727); format: functional
T1 sequence (O14727 whole entry): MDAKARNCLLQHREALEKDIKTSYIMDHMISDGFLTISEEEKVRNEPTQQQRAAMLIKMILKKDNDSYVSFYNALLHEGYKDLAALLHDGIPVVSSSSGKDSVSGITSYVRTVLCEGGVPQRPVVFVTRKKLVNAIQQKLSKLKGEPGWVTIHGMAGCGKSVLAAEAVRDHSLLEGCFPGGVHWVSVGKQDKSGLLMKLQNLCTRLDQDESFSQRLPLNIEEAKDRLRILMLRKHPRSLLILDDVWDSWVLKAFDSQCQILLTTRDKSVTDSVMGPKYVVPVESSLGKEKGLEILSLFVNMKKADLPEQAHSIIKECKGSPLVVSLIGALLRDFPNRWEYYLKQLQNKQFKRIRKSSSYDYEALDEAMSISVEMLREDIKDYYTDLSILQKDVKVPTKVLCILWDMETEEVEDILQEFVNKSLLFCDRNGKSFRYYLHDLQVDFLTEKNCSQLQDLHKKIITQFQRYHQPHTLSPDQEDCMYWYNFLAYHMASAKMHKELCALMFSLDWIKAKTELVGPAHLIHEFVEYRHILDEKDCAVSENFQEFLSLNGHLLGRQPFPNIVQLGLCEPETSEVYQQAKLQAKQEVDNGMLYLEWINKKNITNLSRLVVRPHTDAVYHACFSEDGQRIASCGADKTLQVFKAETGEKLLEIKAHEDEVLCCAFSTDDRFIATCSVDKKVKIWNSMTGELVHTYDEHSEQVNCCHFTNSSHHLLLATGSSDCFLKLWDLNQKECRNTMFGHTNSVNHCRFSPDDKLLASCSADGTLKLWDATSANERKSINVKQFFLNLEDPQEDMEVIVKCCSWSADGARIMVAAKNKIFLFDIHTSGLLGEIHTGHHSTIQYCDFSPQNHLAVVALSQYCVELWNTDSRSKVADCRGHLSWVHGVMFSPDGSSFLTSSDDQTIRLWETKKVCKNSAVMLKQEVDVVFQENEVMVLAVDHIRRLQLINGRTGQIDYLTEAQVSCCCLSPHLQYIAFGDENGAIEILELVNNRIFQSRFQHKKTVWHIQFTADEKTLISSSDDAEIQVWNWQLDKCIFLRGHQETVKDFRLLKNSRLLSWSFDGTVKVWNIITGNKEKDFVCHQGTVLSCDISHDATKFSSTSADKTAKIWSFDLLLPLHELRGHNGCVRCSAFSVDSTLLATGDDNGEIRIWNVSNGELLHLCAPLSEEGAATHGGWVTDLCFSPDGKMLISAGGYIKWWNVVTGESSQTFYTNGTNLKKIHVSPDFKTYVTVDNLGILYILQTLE

[2] = Counterscreen for IDE inhibitors: Luminescence-based cell-based high throughput dose response assay to identify compounds that are cytotoxic to HEK cells. [Related pubchem assays: 434962 (Primary screen (IDE inhibitors in singlicate)), 449730 (Counterscreen (Cytotoxicity in triplicate)), 435028 (Confirmation (IDE inhibitors in triplicate)) …; format: functional; conditions: HEK293
[3] = molecular target: T2, Oxysterols receptor LXR-beta (Homo sapiens, UniProt P55055); format: functional, cell-based;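 note: agonist activity at LXR measured by a cell-based luminescence readout across a dose range, run as a counterscreen for daf-12 agonists; HEK293 cells with Gal4-LXR fusion and GAL4-driven luciferase reporter; potency for activation of Gal4-LXR reporter so compounds are agonists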
T2 sequence (P55055 whole entry): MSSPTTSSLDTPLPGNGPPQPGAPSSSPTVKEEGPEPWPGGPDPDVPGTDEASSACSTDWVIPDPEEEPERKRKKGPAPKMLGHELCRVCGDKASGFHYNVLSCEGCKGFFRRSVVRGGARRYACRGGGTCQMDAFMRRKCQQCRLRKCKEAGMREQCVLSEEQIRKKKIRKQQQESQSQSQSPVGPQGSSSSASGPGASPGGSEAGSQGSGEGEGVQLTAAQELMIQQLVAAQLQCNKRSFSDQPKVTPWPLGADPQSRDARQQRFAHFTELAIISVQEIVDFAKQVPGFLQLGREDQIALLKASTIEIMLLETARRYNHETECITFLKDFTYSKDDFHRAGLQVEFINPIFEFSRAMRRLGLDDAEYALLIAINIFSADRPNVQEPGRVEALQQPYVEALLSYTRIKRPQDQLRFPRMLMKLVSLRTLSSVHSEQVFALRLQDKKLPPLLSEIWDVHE

[4] = Luminescence-based cell-based high throughput dose response assay to identify activators of the DAF-12 from the parasite S. stercoralis (ssDAF-12).; format: functional

Compound	IC50 [1]	IC50 [2]	EC50 [3]	IC50 [4]
COc1ccc(/C=N/Nc2cc(N(C)C)nc(N(C)C)n2)cc1	2.36 µM (active)	–	–	–
C/C(=N\c1cccc(C)c1)c1sc2ccccc2c1O	–	43.1 µM (not active)	> 67.6 µM (inactive)	> 67.6 µM (inactive)
